System: aRPE cells
Experiment: intracellular ROS, GSH, MDA, antioxidant enzyme activity and survival in aRPE cells (basal, H2O2, BSO, Tempol)
Type: cell-based, human
Details: aRPE-PU cells, pretreatment 0.5 mmol/L, then 100 μM H2O2, p<0.05 vs H2O2
Procedure: The results were expressed as nmol/g protein. Total SOD activity was determined by Superoxide Dismutase Activity Colorimetric Assay Kit (Abcam) according to manufacturer's protocol. SOD activity was expressed as units/g protein. GSH-Px and CAT activities were measured by glutathione peroxidase cellular activity assay kit and catalase assay kit, both are purchased from Sigma.
Cultured aRPE cells were washed with PBS twice and treated with 100 μM H2O2. After 8 hours, the medium was removed, and the cells were collected for the subsequent experiments. […] In brief, cells were incubated with […] DCFH-DA in culture medium for 30 min at 37° C., followed by washing with PBS and flow cytometric analysis. The intracellular GSH content was detected by colorimetric assay using the GSH-400 kit (OXIS International, Portland, Oreg., USA). In the GSH-400 assay, 4-chloro-1-methyl-7-trifluoromethyl-quinolinium methylsulfate was added to react with all mercaptans in the sample, leading to the formation of substitution products, […]. Then, 30% sodium hydroxide was used to mediate a β-elimination reaction and specifically transform GSH-thioester into a chromophoricthione with a maximal absorbance wavelength at 400 nm that was detected by a spectrophotometer.

SMILES: CC1(C)CC(O)CC(C)(C)N1[O] [Tempol, 4-hydroxy-2,2,6,6-tetramethylpiperidinyloxy]
- H2O2-induced ROS production: decreased
- H2O2-induced cell death: decreased

— patent US8962587B2, “Gene delivery of OCT4 and SirT1 and pharmaceutical compositions thereof” (Taipei Veterans General Hospital, priority 2011, dated 2015)
